{"source": "patent US20160221974A1", "about": "“SODIUM CHANNEL MODULATORS FOR THE TREATMENT OF PAIN AND DIABETES” (CHROMOCELL CORPORATION, priority 2013, published 2016)", "key": {"[1]": {"target": "T1, NaV1.7 (Homo sapiens, UniProt Q15858)", "T1 construct": "expressed in transfected cells", "T1 sequence (Q15858 whole entry)": "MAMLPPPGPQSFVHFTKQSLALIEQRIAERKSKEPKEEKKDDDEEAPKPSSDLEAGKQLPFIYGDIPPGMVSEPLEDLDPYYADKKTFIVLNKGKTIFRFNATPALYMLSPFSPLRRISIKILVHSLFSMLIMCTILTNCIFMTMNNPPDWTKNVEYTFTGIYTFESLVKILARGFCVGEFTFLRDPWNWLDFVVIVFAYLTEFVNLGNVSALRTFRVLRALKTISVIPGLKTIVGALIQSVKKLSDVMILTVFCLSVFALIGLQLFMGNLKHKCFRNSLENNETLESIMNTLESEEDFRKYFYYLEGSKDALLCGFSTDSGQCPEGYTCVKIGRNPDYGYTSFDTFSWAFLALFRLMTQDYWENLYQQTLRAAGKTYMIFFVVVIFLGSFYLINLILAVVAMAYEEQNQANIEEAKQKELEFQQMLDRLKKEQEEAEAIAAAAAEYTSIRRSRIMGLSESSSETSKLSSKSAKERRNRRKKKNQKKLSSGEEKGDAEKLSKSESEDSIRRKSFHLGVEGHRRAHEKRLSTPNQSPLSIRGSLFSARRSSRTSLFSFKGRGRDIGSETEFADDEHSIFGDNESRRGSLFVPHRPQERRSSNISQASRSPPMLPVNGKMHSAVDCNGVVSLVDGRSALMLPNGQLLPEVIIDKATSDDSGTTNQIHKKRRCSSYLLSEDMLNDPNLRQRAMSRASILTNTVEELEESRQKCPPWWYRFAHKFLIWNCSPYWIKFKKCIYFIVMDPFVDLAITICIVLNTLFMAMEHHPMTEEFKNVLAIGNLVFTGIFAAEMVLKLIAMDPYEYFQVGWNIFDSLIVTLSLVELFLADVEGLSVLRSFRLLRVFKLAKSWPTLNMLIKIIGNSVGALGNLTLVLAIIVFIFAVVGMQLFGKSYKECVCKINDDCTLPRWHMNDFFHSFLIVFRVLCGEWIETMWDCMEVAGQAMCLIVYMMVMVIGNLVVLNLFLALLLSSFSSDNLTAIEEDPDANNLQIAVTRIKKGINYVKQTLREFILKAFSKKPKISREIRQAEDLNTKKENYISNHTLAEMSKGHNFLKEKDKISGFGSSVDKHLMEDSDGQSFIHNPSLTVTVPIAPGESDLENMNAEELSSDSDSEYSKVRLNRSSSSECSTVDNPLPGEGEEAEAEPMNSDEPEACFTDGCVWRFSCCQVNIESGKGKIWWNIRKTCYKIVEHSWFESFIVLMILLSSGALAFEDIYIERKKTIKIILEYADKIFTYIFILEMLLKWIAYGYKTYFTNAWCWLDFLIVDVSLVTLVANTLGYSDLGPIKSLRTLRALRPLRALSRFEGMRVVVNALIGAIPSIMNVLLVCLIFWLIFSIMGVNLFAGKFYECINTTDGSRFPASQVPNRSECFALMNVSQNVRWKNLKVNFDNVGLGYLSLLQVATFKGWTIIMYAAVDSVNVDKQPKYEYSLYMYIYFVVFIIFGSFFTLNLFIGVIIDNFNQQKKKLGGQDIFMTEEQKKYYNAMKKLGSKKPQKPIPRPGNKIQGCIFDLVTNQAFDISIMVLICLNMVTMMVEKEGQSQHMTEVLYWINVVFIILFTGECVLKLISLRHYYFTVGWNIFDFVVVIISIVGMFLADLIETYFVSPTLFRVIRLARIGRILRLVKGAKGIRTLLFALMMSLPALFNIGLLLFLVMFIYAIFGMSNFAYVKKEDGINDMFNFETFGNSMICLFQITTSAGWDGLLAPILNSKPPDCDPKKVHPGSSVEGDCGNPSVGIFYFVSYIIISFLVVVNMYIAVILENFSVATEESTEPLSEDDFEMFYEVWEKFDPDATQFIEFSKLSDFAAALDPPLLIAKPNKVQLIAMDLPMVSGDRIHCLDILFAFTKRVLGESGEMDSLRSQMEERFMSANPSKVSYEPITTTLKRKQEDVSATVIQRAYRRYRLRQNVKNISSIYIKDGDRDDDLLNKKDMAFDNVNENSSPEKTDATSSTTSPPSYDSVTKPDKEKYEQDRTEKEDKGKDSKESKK", "T1 sequence (Q07699 19-218 partner)": "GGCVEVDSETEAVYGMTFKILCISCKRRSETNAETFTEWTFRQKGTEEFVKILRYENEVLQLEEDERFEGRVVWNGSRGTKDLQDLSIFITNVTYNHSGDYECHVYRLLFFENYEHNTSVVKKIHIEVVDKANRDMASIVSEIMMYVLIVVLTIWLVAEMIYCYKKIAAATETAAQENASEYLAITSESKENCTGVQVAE", "T1 sequence (O60939 30-215 partner)": "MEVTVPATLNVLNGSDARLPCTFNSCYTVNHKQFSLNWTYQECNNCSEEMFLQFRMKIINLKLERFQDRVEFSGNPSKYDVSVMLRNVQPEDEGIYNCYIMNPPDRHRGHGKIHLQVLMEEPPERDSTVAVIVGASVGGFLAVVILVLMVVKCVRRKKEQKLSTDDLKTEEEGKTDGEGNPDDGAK", "experiment": "Patchliner Electrophysiological In-Vitro Assay (NaV1.7)", "type": "cell-based", "settings": "Patchliner patch clamp, HEK293, holding at V1/2", "method_in_brief": "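Automated whole-cell patch clamp at room temperature on HEK293 cells stably expressing hNav1.7 with β1 and β2 subunits. Inactivated-state Ki: cells held at their own V1/2, stepped to −120 mV for 5–10 ms, then to Vmax for 10–20 ms, repeated every 10 s; dose-dependent inhibition analysed.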"}, "[2]": {"target": "T2, NaV1.5 (Homo sapiens, UniProt Q14524)", "T2 construct": "expressed in transfected cells", "T2 sequence (Q14524 whole entry)": "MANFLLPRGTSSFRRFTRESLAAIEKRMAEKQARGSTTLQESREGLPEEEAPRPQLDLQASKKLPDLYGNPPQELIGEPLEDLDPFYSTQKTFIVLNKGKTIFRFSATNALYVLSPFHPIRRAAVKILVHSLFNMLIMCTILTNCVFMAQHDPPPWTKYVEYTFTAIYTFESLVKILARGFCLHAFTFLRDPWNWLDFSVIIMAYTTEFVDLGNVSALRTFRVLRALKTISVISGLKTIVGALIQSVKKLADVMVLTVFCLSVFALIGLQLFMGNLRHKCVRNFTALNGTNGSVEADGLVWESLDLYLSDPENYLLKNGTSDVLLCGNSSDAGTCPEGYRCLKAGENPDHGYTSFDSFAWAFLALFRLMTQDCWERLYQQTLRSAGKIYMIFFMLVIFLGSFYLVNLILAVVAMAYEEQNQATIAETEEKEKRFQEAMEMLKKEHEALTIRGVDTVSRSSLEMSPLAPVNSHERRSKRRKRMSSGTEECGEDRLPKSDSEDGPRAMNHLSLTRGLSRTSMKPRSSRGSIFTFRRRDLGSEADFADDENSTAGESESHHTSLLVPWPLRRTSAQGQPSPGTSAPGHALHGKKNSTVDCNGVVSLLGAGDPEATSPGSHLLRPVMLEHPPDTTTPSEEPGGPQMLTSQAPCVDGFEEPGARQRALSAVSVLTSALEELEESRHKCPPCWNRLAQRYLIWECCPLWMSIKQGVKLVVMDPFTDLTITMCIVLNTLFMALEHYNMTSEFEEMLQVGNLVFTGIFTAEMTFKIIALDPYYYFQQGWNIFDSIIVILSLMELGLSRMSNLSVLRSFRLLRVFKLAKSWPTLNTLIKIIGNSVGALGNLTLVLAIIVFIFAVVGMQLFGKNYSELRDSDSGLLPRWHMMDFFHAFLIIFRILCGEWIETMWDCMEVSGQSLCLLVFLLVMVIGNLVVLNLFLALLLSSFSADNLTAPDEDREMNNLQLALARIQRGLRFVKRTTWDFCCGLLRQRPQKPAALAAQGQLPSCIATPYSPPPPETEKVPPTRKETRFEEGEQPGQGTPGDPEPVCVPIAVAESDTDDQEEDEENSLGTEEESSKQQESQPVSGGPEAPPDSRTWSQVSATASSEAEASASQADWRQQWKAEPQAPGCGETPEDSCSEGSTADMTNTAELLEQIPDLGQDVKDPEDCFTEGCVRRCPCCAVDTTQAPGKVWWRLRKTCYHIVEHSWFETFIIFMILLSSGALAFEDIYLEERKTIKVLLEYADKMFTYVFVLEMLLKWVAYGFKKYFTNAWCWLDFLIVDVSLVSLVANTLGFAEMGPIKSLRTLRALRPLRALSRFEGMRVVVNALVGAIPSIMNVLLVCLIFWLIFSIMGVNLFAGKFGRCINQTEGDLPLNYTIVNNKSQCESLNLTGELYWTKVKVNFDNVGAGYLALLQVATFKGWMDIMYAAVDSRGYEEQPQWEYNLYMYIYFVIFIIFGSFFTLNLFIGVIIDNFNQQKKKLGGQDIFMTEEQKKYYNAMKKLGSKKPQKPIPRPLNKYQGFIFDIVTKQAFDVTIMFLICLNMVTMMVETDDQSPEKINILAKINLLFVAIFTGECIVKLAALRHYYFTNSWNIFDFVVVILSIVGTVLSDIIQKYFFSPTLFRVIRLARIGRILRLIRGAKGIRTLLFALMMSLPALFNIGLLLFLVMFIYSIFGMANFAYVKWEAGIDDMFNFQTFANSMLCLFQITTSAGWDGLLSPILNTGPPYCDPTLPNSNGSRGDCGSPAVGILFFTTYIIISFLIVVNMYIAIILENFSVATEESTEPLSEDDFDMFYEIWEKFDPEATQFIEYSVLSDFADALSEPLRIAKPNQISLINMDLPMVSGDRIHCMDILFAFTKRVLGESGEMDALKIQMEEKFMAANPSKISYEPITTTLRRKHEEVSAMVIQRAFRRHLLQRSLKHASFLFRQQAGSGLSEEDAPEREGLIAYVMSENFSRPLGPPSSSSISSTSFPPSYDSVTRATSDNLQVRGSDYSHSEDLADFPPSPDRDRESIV", "experiment": "Patchliner Electrophysiological In-Vitro Assay (NaV1.5)", "type": "cell-based", "settings": "Patchliner patch clamp, HEK293", "protocol": "The recording of sodium current from stable HEK293 cell lines expressing NaV1.7 or NaV1.5 was done on a Patchliner® instrument, Nanion Technologies. The Patchliner® is a fully automated bench-top patch clamp platform and can record simultaneously from up to eight single cells with GΩ seals.\nFor patch-clamp experiments, cells were grown under standard culturing conditions in Dulbecco's Modified Eagles medium supplemented with 10% fetal bovine serum, glutamine and HEPES. Cells were harvested and kept in suspension for up to 4 hours with no significant change in quality or ability to patch. Whole cell patch clamp recordings were conducted according to Nanion's standard procedure for the Patchliner®. Experiments were conducted at room temperature.\nVoltage protocols were designed to establish: 1) peak current amplitude (Imax), 2) test potential (Vmax) and 3) half-inactivation potential (V1/2) for each of the eight individual cells. To determine V1/2, a standard steady-state inactivation protocol was executed using a series of fifteen 500 ms depolarizing pre-pulses in 10 mV increments (starting at −130 mV) and immediately followed by a 10 ms test pulse to Vmax. To estimate test compound affinity to the inactivated state of sodium channel (Ki), the holding potential for each cell was set automatically to the V1/2 calculated from a steady-state inactivation data. The current was activated with the following voltage protocol: holding at V1/2 for 2-5 seconds, return to the −120 mV for 5-10 ms to relieve fast inactivation, stepping to test potential (Vmax) for 10-20 ms. This voltage protocol was repeated every 10 seconds to establish the baseline with 2-3 buffer additions followed by the test compound addition. The dose-dependent inhibition was analyzed using Nanion's Data Analysis Package."}, "[3]": {"tested_on": "rat streptozotocin-induced model for diabetes", "experiment": "Evaluation of Anti-Diabetic Effect in In Vivo Model of Diabetes (chronic dosing, STZ rats)", "protocol": "250-350 g male Sprague-Dawley rats from appropriate animal resources were used. Type I diabetes was induced by a single injection, (intraperitoneally, intravenously or intramuscularly) of 50-100 mg/kg of streptozotocin (STZ, Sigma Chemicals, St. Louis, Mo. or VWR) freshly dissolved in sodium citrate (0.01 M, pH 4.5). Sham animals were given either saline or same vehicle injection. Following a wait time of about two days, inducement of diabetes was confirmed in STZ-injected rats by measuring the plasma glucose concentrations in blood samples from the tail vein after a fast of 6 hours. The glucose level was assayed using a mini glucose monitor (kit for AlphaTRAK 2 meter, available from Abbott Laboratories). Screening for hyperglycemia in STZ-injected animals was done, with only animals with a final blood glucose level ≧300 mg/dl being selected for the study. Glucose levels in the sham animals remained normal. Other parameters (water intake, food intake, and bodyweight) were monitored before the treatment with a test compound and after the cessation of the treatment.\nA Compound provided herein is tested in the rat STZ model of diabetes by chronic administration of the Compound for at least 7 days to evaluate analgesic and antidiabetic effects of the Compound. The analgesic effect of the Compound can be evaluated using behavioral tests (e.g., von Frey test, plantar test, and paw pressure test described herein below). The anti-diabetic effect of the Compound can be evaluated based on the improvement in the glucose level, food intake, water intake in the compound treated group compared to the untreated vehicle group and the normal, non-diabetic sham control group.\nDiabetes mellitus was induced in rats as described in paragraph [00327] above.\nThe baseline glucose levels, daily food and water intake and behavioral tests (von Frey, paw pressure and plantar tests) were measured for each animal once weekly for 28 weeks, and once every 2-4 weeks for an additional 28-30 weeks. At a selected week (started from week 6) for a compound test, diabetic rats were divided into two test groups: a vehicle control group and a test compound treated group (n=10 each group). A sham group (saline only without STZ i.p. injection, n=10) was added as a normal, non-diabetic control group. To minimize animal stress associated with repeated daily handling, the compound treated diabetic group of animals received the test compound at a daily dose of 60 mg/kg in their drinking water containing 2% PEG600 and 1% glycofurol (the test compound concentration in the drinking water was based on the individual animal's average daily water consumption as determined the pre-dosing period, which averaged 0.1-0.11 mg/ml). The vehicle control group received drinking water containing 2% PEG600 and 1% glycofurol without the test compound. The treatment continued for 9 days. On day 10 drinking water with test compound or vehicle (2% PEG600 and 1% glycofurol) was replaced with plain drinking water in all groups. The monitoring of glucose levels, food and water intake as well as behavior tests continued for additional 28-30 weeks. […] A gradual, significant reversal of up to 90% of mechanical allodynia (von Frey test) was achieved after 9 days of treatment.\nFIGS. 1-3 show food intake, glucose level, and water intake, respectively, for the vehicle control group, the test compound treated group (compound 49, 60 mg/kg/day), and the sham group. […] The significant reduction of food intake, glucose level, and water intake of the compound treated group compared to the vehicle control group continues through week 52. […] Since the standard deviation in the sham groups are less than 5%, no error bars are shown."}, "[4]": {"settings": "diabetic rats, 60 mg/kg/day in drinking water for 9 days"}, "[5]": {"settings": "measured on day 11, two days after compound withdrawal"}}}
{"smiles": "NC(=O)CNCCCc1cc(Cl)ccc1Oc1cc(F)c(S(=O)(=O)Nc2cscn2)cc1Cl", "note": "[Compound 49, 2-((3-(5-chloro-2-(2-chloro-5-fluoro-4-(N-(thiazol-4-yl)sulfamoyl)phenoxy)phenyl)propyl)amino)acetamide]", "values": [{"measurement": "IC50", "setting": "[1]", "value": "< 0.1", "unit": "µM"}, {"measurement": "IC50", "setting": "[2]", "value": "> 10", "unit": "µM"}, {"measurement": "food intake", "setting": "[3]; diabetic rats, 60 mg/kg/day for 9 days, compared to vehicle control group, continues through week 52 (FIG. 1)", "value": "significantly reduced"}, {"measurement": "glucose level", "setting": "[3]; diabetic rats, 60 mg/kg/day for 9 days, compared to vehicle control group, continues through week 52 (FIG. 2)", "value": "significantly reduced"}, {"measurement": "water intake", "setting": "[3]; diabetic rats, 60 mg/kg/day for 9 days, compared to vehicle control group, continues through week 52 (FIG. 3)", "value": "significantly reduced"}, {"measurement": "mechanical pain (paw pressure test)", "setting": "[3]; [4]", "value": "rapid and sustained improvement"}, {"measurement": "thermal pain (plantar test)", "setting": "[3]; [4]", "value": "rapid and sustained improvement"}, {"measurement": "tachyphylaxis", "setting": "[3]; diabetic rats, 60 mg/kg/day in drinking water for 9 days, paw pressure and plantar tests", "value": "no tachyphylaxis"}, {"measurement": "reversal of mechanical allodynia (von Frey test)", "setting": "[3]; diabetic rats, 60 mg/kg/day in drinking water, after 9 days of treatment", "value": "up to 90%"}, {"measurement": "time allodynia threshold (von Frey test) stayed significantly above the pretreatment level baseline after compound withdrawal", "setting": "[3]; diabetic rats, after 9 days of 60 mg/kg/day", "value": "up to 5 days"}, {"measurement": "general appearance and/or health", "setting": "[3]; diabetic rats, after treatment with 60 mg/kg/day stopped on day 9", "value": "improvements in general appearance and/or health"}, {"measurement": "paw pressure test threshold after compound withdrawal", "setting": "[3]; [5]", "value": "returned to the pretreatment baseline"}, {"measurement": "plantar test threshold after compound withdrawal", "setting": "[3]; [5]", "value": "returned to the pretreatment baseline"}]}
